Source: patent US20150353495A1 (PORTOLA PHARMACEUTICALS, INC., priority 2010, published 2015)

Legend:
Type in all cases: biochemical
JAK1 = target: T1, JAK1 (Homo sapiens, UniProt P23458); assay: Z'-LYTE kinase assay JAK1
T1 construct: 5 μl of catalytic domain recombinant Kinase enzyme+Tyr peptide substrate (Invitrogen, CA); purchased Invitrogen
Summary of the method: (§1)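 Catalytic-domain recombinant kinase was incubated with Tyr6 FRET peptide, ATP and compound (1% DMSO final) for 1 h at room temperature. Protease development followed for 1 h, cleaving only non-phosphorylated peptide. Inhibition of phosphorylation was read as coumarin/fluorescein FRET fluorescence.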

JAK2 = target: T2, JAK2 (Homo sapiens, UniProt O60674); assay: Z'-LYTE kinase assay JAK2
T2 construct: 5 μl of catalytic domain recombinant Kinase enzyme+Tyr peptide substrate (Invitrogen, CA); purchased Invitrogen
Summary of the method: as §1

JAK3 = target: T3, JAK3 (Homo sapiens, UniProt P52333); assay: Z'-LYTE kinase assay JAK3
T3 construct: 5 μl of catalytic domain recombinant Kinase enzyme+Tyr peptide substrate (Invitrogen, CA); purchased Invitrogen
Summary of the method: as §1

T1 sequence (P23458 875-1153 limits assumed): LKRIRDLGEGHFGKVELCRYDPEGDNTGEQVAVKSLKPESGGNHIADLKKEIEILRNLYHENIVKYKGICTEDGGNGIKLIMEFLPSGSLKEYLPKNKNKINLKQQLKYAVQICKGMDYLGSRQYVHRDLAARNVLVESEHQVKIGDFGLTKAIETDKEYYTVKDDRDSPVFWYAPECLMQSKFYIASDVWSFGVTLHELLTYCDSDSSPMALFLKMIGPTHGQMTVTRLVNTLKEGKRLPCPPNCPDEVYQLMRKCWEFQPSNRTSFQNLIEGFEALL
T2 sequence (O60674 849-1124 limits assumed): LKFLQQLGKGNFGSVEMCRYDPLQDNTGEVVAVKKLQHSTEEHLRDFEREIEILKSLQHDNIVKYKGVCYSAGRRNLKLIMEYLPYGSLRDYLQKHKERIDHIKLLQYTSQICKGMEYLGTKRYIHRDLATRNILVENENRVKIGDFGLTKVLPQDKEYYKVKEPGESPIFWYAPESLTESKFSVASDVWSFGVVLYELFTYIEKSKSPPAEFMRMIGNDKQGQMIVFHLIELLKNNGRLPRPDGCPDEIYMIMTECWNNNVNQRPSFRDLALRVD
T3 sequence (P52333 822-1111 limits assumed): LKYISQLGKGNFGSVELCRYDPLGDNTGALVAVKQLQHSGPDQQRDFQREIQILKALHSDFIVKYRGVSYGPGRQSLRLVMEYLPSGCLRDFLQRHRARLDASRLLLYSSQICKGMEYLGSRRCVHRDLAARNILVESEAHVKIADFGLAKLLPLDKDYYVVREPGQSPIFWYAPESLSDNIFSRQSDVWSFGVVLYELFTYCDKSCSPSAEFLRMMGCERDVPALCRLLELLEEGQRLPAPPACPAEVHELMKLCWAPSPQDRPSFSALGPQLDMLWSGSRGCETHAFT

`CCC(=O)N1CCC(c2ccc(Nc3cc(NC4(c5ccccc5)CC4)c(C(N)=O)cn3)cc2)CC1` [Example 375, 4-(1-phenylcyclopropylamino)-6-(4-(1-propionylpiperidin-4-yl)phenylamino)nicotinamide] showed an IC50 (JAK1) greater than 1000 nM, an IC50 (JAK2) greater than 1000 nM and an IC50 (JAK3) of 10 to 100 nM.

`NC(=O)c1cnc(Nc2ccc(C3CCOCC3)cc2)cc1NCc1ccccc1F` [Example 142, 4-(2-fluorobenzylamino)-6-(4-(tetrahydro-2H-pyran-4-yl)phenylamino)nicotinamide] gave an IC50 (JAK1) greater than 1000 nM, an IC50 (JAK2) of 100 to 1000 nM and an IC50 (JAK3) of 10 to 100 nM.

In the case of `NC(=O)c1cnc(Nc2ccc(S(=O)(=O)N3CCC3)cc2)nc1NCc1ccccc1` [Example 434, 2-(4-(azetidin-1-ylsulfonyl)phenylamino)-4-(benzylamino)pyrimidine-5-carboxamide], the IC50 (JAK1) is reported as greater than 1000 nM, the IC50 (JAK2) is reported as 100 to 1000 nM and the IC50 (JAK3) is reported as 10 to 100 nM.

Compound `CCC(=O)N1CCC(c2ccc(Nc3cc(NCC4(c5ccccc5)CC4)c(C(N)=O)cn3)cc2)CC1` [Example 194, 4-((1-phenylcyclopropyl)methylamino)-6-(4-(1-propionylpiperidin-4-yl)phenylamino)nicotinamide] has an IC50 (JAK1) greater than 1000 nM, an IC50 (JAK2) greater than 1000 nM and an IC50 (JAK3) of 100 to 1000 nM.

`CC(=O)N1CCN(c2cccc(N(C(C)=O)c3cc(NC4(c5ccccc5)CC4)c(C(N)=O)cn3)c2)CC1` [Example 372, 6-(N-(3-(4-acetylpiperazin-1-yl)phenyl)acetamino)-4-(1-phenylcyclopropylamino)nicotinamide] showed an IC50 (JAK1) greater than 1000 nM, an IC50 (JAK2) greater than 1000 nM and an IC50 (JAK3) greater than 1000 nM.

In the case of `COc1ccc(Nc2cc(NCc3cccc(S(C)(=O)=O)c3)c(C(N)=O)cn2)cc1` [Example 301, 6-(4-methoxyphenylamino)-4-(3-(methylsulfonyl)benzylamino)nicotinamide], the IC50 (JAK1) is reported as greater than 1000 nM, the IC50 (JAK2) is reported as greater than 1000 nM and the IC50 (JAK3) is reported as 10 to 100 nM.

In the case of `CCC(=O)N1CCN(c2ccc(Nc3cc(NC4(c5cccc(F)c5F)CC4)c(C(N)=O)cn3)cc2)CC1` [Example 374, 4-(1-(2,3-difluorophenyl)cyclopropylamino)-6-(4-(4-propionylpiperazin-1-yl)phenylamino)nicotinamide], the IC50 (JAK1) is reported as 100 to 1000 nM, the IC50 (JAK2) is reported as 10 to 100 nM and the IC50 (JAK3) is reported as 1 to 10 nM.

`CS(=O)(=O)N1CCC(Nc2cc(Nc3ccc(C4CCOCC4)cc3)ncc2C(N)=O)CC1` [Example 165, 4-(1-(methylsulfonyl)piperidin-4-ylamino)-6-(4-(tetrahydro-2H-pyran-4-yl)phenylamino)nicotinamide] gave an IC50 (JAK1) of 100 to 1000 nM, an IC50 (JAK2) greater than 1000 nM and an IC50 (JAK3) of 100 to 1000 nM.

`NC(=O)c1cnc(Nc2ccc(-c3nc[nH]n3)cc2)cc1NCc1ccccc1` [Example 281, 6-(4-(1H-1,2,4-triazol-3-yl)phenylamino)-4-(benzylamino)nicotinamide] gave an IC50 (JAK1) of 100 to 1000 nM, an IC50 (JAK2) of 100 to 1000 nM and an IC50 (JAK3) of 10 to 100 nM.

Compound `NC(=O)c1cnc(Nc2cccc(C3CCOCC3)c2)cc1NCc1ccccc1F` [Example 152, 4-(2-fluorobenzylamino)-6-(3-(tetrahydro-2H-pyran-4-yl)phenylamino)nicotinamide] has an IC50 (JAK1) of 100 to 1000 nM, an IC50 (JAK2) of 10 to 100 nM and an IC50 (JAK3) of 1 to 10 nM.

`CS(=O)(=O)c1ccc(Nc2cc(NCc3cccc(-c4cccnc4)c3)c(C(N)=O)cn2)cc1` [Example 415] was tested, and the IC50 (JAK1) was greater than 1000 nM, the IC50 (JAK2) was greater than 1000 nM and the IC50 (JAK3) was 10 to 100 nM.

`CN(C)C(=O)Cc1ccc(Nc2cc(NCc3ccccc3)c(C(N)=O)cn2)cc1` [Example 328, 4-(benzylamino)-6-(4-(2-(dimethylamino)-2-oxoethyl)phenylamino)nicotinamide] was tested, and the IC50 (JAK1) was 100 to 1000 nM, the IC50 (JAK2) was 100 to 1000 nM and the IC50 (JAK3) was 1 to 10 nM.

`CC(=O)Nc1ccc(Nc2cc(NCc3cccc4cc[nH]c34)c(C(N)=O)cn2)cc1` [Example 473, 4-((1H-indol-7-yl)methylamino)-6-(4-acetamidophenylamino)nicotinamide] gave an IC50 (JAK1) of 100 to 1000 nM, an IC50 (JAK2) of 100 to 1000 nM and an IC50 (JAK3) of 10 to 100 nM.

`NC(=O)c1cnc(Nc2ccc(S(=O)(=O)N3CCC3)cc2)cc1NCc1ccccc1` [Example 47, 6-(4-(azetidin-1-ylsulfonyl)phenylamino)-4-(benzylamino)nicotinamide] gave an IC50 (JAK1) greater than 1000 nM, an IC50 (JAK2) greater than 1000 nM and an IC50 (JAK3) of 100 to 1000 nM.

With `Cc1cc(Nc2cc(NCc3cccc4ccsc34)c(C(N)=O)cn2)ccc1C(=O)N1CCOCC1` [Example 459, 4-(benzo[b]thiophen-7-ylmethylamino)-6-(3-methyl-4-(morpholine-4-carbonyl)phenylamino)nicotinamide] the IC50 (JAK1) was 100 to 1000 nM, the IC50 (JAK2) was 10 to 100 nM and the IC50 (JAK3) was 1 to 10 nM.

`CCC(=O)N1CCC(c2ccc(Nc3cc(N[C@H](C)C(C)(C)C)c(C(N)=O)cn3)cc2)CC1` [Example 190, (R)-4-(3,3-dimethylbutan-2-ylamino)-6-(4-(1-propionylpiperidin-4-yl)phenylamino)nicotinamide] gave an IC50 (JAK1) of 10 to 100 nM, an IC50 (JAK2) of 10 to 100 nM and an IC50 (JAK3) of 1 to 10 nM.

`CN(C)S(=O)(=O)N1CC(c2ccc(Nc3cc(NCc4ccccc4)c(C(N)=O)cn3)cc2)C1` [Example 339, 4-(benzylamino)-6-(4-(1-(N,N-dimethylsulfamoyl)azetidin-3-yl)phenylamino)nicotinamide] was tested, and the IC50 (JAK1) was greater than 1000 nM, the IC50 (JAK2) was greater than 1000 nM and the IC50 (JAK3) was 10 to 100 nM.

In the case of `CN(C)C(=O)C1CCN(c2ccc(Nc3cc(NCc4cccc5ccsc45)c(C(N)=O)cn3)cc2)CC1` [Example 350, 4-(benzo[b]thiophen-7-ylmethylamino)-6-(4-(4-(dimethylcarbamoyl)piperidin-1-yl)phenylamino)nicotinamide], the IC50 (JAK1) is reported as 10 to 100 nM, the IC50 (JAK2) is reported as 10 to 100 nM and the IC50 (JAK3) is reported as less than 1 nM.

In the case of `CCS(=O)(=O)N1CCC(Nc2cc(Nc3ccc(C4CCOCC4)cc3)ncc2C(N)=O)CC1` [Example 166, 4-(1-(ethylsulfonyl)piperidin-4-ylamino)-6-(4-(tetrahydro-2H-pyran-4-yl)phenylamino)nicotinamide], the IC50 (JAK1) is reported as greater than 1000 nM, the IC50 (JAK2) is reported as 100 to 1000 nM and the IC50 (JAK3) is reported as 100 to 1000 nM.

`CN(C)C(=O)C1CCN(c2ccc(Nc3cc(NCc4cccc(-c5ccncc5)c4)c(C(N)=O)cn3)cc2)CC1` [Example 419, 6-(4-(4-(dimethylcarbamoyl)piperidin-1-yl)phenylamino)-4-(3-(pyridine-4-yl)benzylamino)nicotinamide] was tested, and the IC50 (JAK1) was greater than 1000 nM, the IC50 (JAK2) was 100 to 1000 nM and the IC50 (JAK3) was 1 to 10 nM.

Compound `NC(=O)c1cnc(Nc2cccc(CN3CCOCC3)c2)cc1NC1(c2ccccc2)CC1` [Example 129, 6-(3-(morpholinomethyl)phenylamino)-4-(1-phenylcyclopropylamino)nicotinamide] has an IC50 (JAK1) greater than 1000 nM, an IC50 (JAK2) of 100 to 1000 nM and an IC50 (JAK3) of 10 to 100 nM.

`NC(=O)c1cnc(Nc2ccc(N3CCOCC3)cc2)cc1NC1(c2ccccc2)CC1` [Example 125, 6-(4-morpholinophenylamino)-4-(1-phenylcyclopropylamino)-nicotinamide] was tested, and the IC50 (JAK1) was greater than 1000 nM, the IC50 (JAK2) was 100 to 1000 nM and the IC50 (JAK3) was 10 to 100 nM.

Compound `CN(C)C(=O)c1ccc(Nc2cc(NCc3cccc(F)n3)c(C(N)=O)cn2)cc1` [Example 316, 6-(4-(dimethylcarbamoyl)phenylamino)-4-((6-fluoropyridin-2-yl)methylamino)nicotinamide] has an IC50 (JAK1) of 100 to 1000 nM, an IC50 (JAK2) of 100 to 1000 nM and an IC50 (JAK3) of 1 to 10 nM.

Work on `COc1ccc(Nc2cc(NC[C@H]3CCCN(C(=O)N4CCCC4)C3)c(C(N)=O)cn2)cc1` [Example 290, (R)-6-(4-methoxyphenylamino)-4-((1-(pyrrolidine-1-carbonyl)piperidin-3-yl)methylamino)nicotinamide] yielded an IC50 (JAK1) greater than 1000 nM, an IC50 (JAK2) greater than 1000 nM and an IC50 (JAK3) of 100 to 1000 nM.
